Assay [1] in a line: Inhibition of alpha-glucoamylase (unknown origin) assessed as Ki/Kc at 100 mg/l after 10 min spectrophotometry; values are per cent of control. Conditions: Homo sapiens.
The species named for assay [2] is Homo sapiens. As to the kind of experiment: Inhibition of alpha-glucoamylase (unknown origin) assessed as 1-Ki/Kc X 100% at 100 mg/l after 10 min spectrophotometry.
The subject of assay [3] is Mus musculus. As to the kind of experiment: Hypoglycemic activity in alloxan-induced diabetic Mus musculus (mouse) assessed as blood glucose level at 10 mg/kg, qd for 14 days measured on 7th day (reference value: 19.79 +/- 1.28 mmol/l). Format: functional.
Assay [4] concerns Mus musculus. As to the kind of experiment: Hypoglycemic activity in alloxan-induced diabetic Mus musculus (mouse) assessed as blood glucose level at 10 mg/kg, qd for 14 days measured on 14th day (reference value: 19.04 +/- 1.27 mmol/l). It counts as functional.
For assay [5], the system named is Mus musculus. As to the kind of experiment: Hypoglycemic activity in alloxan-induced diabetic Mus musculus (mouse) assessed as blood glucose level at 50 mg/kg, qd for 14 days measured on 14th day (reference value: 19.04 +/- 1.27 mmol/l). It counts as functional.
In assay [6] the test system is Mus musculus. As to the kind of experiment: Hypoglycemic activity in alloxan-induced diabetic Mus musculus (mouse) assessed as blood glucose level at 20 mg/kg, qd for 14 days measured on 7th day (reference value: 19.79 +/- 1.28 mmol/l). It counts as functional.
Assay [7] has as its system Mus musculus. As to the kind of experiment: Hypoglycemic activity in alloxan-induced diabetic Mus musculus (mouse) assessed as blood glucose level at 50 mg/kg, qd for 14 days measured on 7th day (reference value: 19.79 +/- 1.28 mmol/l). It counts as functional.
The subject of assay [8] is Mus musculus. As to the kind of experiment: Hypoglycemic activity in alloxan-induced diabetic Mus musculus (mouse) assessed as blood glucose level at 20 mg/kg, qd for 14 days measured on 14th day (reference value: 19.04 +/- 1.27 mmol/l). It counts as functional.

Our source for the residual activity, inhibition and Activity values is ChEMBL document CHEMBL3045937, “Synthesis and hypoglycemic activity evaluation of 7-alkoxyl-rhein” (2012).

The term residual activity denotes what remains of the control signal, in per cent. Broadly, the inhibition is the share of the control response that was lost under treatment.

Turning to `Cc1cc(O)c2c(c1)C(=O)c1cc(O)cc(O)c1C2=O`, in assay [1], the residual activity was found to be 76.4%. In addition, in assay [2], the inhibition was 23.6%.
Take `CCCCCCCCCCCCOc1cc(O)c2c(c1)C(=O)c1cc(C(=O)O)cc(O)c1C2=O`: the residual activity in assay [1] came to 49.3%. Further, the inhibition in assay [2] is 50.7%.
The corresponding values for `CCCCOc1cc(O)c2c(c1)C(=O)c1cc(C(=O)O)cc(O)c1C2=O` are 55% and 45%.
The corresponding values for `CCCCCCCCCCCCCCCCOc1cc(O)c2c(c1)C(=O)c1cc(C(=O)O)cc(O)c1C2=O` are 70.2% and 29.8%.
`C[C@H]1O[C@H](O[C@H]2[C@H](O)[C@@H](O)[C@@H](O[C@H]3[C@H](O)[C@@H](O)C(O)O[C@@H]3CO)O[C@@H]2CO)[C@H](O)[C@@H](O)[C@@H]1N[C@H]1C=C(CO)[C@@H](O)[C@H](O)[C@H]1O` (some centres not stated) [ACARBOSE]: the residual activity in assay [1] was determined as 8.6%. Further, the inhibition in assay [2] was determined as 91.4%. Moreover, the Activity in assay [3] is 10.58 mmol/L; in assay [4] it was 6.87 mmol/L.
As for `CCCCCCOc1cc(O)c2c(c1)C(=O)c1cc(C(=O)O)cc(O)c1C2=O`, the residual activity in assay [1] came out at 45.5%. Moreover, the inhibition in assay [2] is 54.5%.
For `CCCCCCCCOc1cc(O)c2c(c1)C(=O)c1cc(C(=O)O)cc(O)c1C2=O`, in assay [1], the residual activity was 39.4%. For the same compound, the inhibition in assay [2] was 60.6%. In addition, the Activity turned out to be 7.03 mmol/L in assay [5]; 17.05 mmol/L in assay [3]; 12.03 mmol/L in assay [4]; 16.79 mmol/L in assay [6]; 10.05 mmol/L in assay [7]; 10.04 mmol/L in assay [8].
